In publication PMC10337138 (Acta Neuropathologica Communications, 2023):

Key:
BLK = BLK (Homo sapiens, UniProt P51451); experiment: AssayQuant Sox-peptide kinase panel, […] compound, […] ATP; […] inhibition; assay type: biochemical
BRK/PTK6 = BRK/PTK6 (Homo sapiens, UniProt Q13882); experiment: as above; assay type: biochemical
Chain of BRK/PTK6 (Q13882 whole entry): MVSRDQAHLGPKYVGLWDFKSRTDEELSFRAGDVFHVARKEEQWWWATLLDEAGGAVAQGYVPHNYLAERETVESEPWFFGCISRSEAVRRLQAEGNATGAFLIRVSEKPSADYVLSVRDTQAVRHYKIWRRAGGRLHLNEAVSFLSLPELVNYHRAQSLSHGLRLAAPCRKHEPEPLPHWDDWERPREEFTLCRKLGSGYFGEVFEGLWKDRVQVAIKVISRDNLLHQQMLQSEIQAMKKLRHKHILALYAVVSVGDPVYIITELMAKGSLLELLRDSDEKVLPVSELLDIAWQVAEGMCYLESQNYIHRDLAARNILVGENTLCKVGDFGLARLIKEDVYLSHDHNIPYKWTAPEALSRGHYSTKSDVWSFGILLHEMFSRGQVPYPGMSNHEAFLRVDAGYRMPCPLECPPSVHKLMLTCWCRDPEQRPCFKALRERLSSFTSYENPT

Chain of BLK (P51451 2-505): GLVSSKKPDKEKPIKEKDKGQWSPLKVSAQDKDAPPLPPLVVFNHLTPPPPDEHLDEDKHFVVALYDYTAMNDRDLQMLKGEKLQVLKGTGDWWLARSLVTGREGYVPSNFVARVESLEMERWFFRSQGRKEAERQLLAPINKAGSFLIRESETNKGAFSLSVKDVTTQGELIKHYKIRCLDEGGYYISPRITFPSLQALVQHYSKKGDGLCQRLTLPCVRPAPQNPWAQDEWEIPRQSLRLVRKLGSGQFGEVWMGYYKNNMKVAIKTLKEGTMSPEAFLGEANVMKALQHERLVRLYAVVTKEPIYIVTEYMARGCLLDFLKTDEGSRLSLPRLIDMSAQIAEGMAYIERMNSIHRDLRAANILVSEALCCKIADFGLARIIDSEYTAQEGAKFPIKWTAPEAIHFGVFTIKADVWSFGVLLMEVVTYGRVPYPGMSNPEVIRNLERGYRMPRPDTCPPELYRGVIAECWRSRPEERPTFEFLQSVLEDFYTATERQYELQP

GB7208 was tested, and the “% inhibition at 1 μM” value (BLK) was greater than 50 and the “% inhibition at 1 μM” value (BRK/PTK6) was greater than 50.
